The values below come from patent publication US11597724B2, “Herbicidally active 3-phenylisoxazoline-5-carboxamides of tetrahydro and dihydrofuran carboxylic acids and esters” (Bayer Aktiengesellschaft, priority 2017, dated 2023).

What all share (assay type): in vivo
For assay [1], the system named is Setaria viridis. Kind of assay: Post-emergence herbicidal activity against SETVI. Particulars: dosage 320 g/ha, rated about 3 weeks after treatment; for pest or weed control at 320 g/ha: Setaria viridis, 504 h. In short, it runs like this:
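Greenhouse weeds in sandy loam were sprayed at the one-leaf stage, 2–3 weeks after sowing, with WP or EC formulations plus 0.5% additive at 600 l/ha water. About 3 weeks later, damage was rated visually against untreated controls, where 100% means plants dead and 0% means like control.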

The subject of assay [2] is Veronica persica. In words: Pre-emergence herbicidal activity against VERPE. The following applies: dosage 80 g/ha; for pest or weed control at 80 g/ha: Veronica persica, 504 h. In short, it runs like this: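 Weed seeds sown in pots and covered with soil, then WP or EC formulations sprayed onto the soil surface as aqueous suspension/emulsion with 0.5% additive at 600 l/ha water. Kept in greenhouse; visual percent effect versus untreated controls scored after about 3 weeks (100% = plants dead).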

The test system of assay [3] is Alopecurus myosuroides. In words: Pre-emergence herbicidal activity against ALOMY. The following applies: dosage 80 g/ha, scored visually after about 3 weeks vs untreated controls (100% = plants have died, 0% = like control plants); for pest or weed control at 80 g/ha: Alopecurus myosuroides, 504 h. From the text:
(§1) 1. Pre-Emergence Herbicidal Action and Crop Plant Compatibility Seeds of monocotyledonous and dicotyledonous weed plants and crop plants are placed in plastic or wood fiber pots and covered with soil. The compounds of the invention, formulated in the form of wettable powders (WP) or as emulsion concentrates (EC), are then applied onto the surface of the covering soil as aqueous suspension or emulsion with addition of 0.5% additive at a water application rate of 600 l/ha (converted). After the treatment, the pots are placed in a greenhouse and kept under good growth conditions for the trial plants. After about 3 weeks, the effect of the preparations is scored visually in comparison with untreated controls as percentages. For example, 100% activity=the plants have died, 0% activity=like control plants. ABUTH: Abutilon theophrasti ALOMY: Alopecurus myosuroides

In assay [4] the test system is Echinochloa crus-galli. Kind of assay: Post-emergence herbicidal activity against ECHCG. Particulars: dosage 320 g/ha, rated about 3 weeks after treatment; for pest or weed control at 320 g/ha: Echinochloa crus-galli, 504 h. In short, it runs like this: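 Greenhouse pot plants sprayed post-emergence at one-leaf stage (2-3 weeks after sowing) with WP or EC formulations, 0.5% additive, 600 l/ha water. Visual rating about 3 weeks later versus untreated controls: 100% = plants dead, 0% = like control.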

Assay [5] relates to Setaria viridis. Kind of assay: Pre-emergence herbicidal activity against SETVI. The following applies: dosage 80 g/ha; for pest or weed control at 80 g/ha: Setaria viridis, 504 h.
Text: as §1, with “POLCO: Polygonum convolvulus SETVI: Setaria viridis” for “ABUTH: Abutilon theophrasti ALOMY: Alopecurus myosuroides”

Assay [6] concerns Veronica persica. Kind of assay: Post-emergence herbicidal activity against VERPE. The following applies: dosage 320 g/ha; for pest or weed control at 320 g/ha: Veronica persica, 504 h. In outline: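 Greenhouse plants treated at one-leaf stage, 2–3 weeks after sowing, by spraying WP or EC formulations with 0.5% additive at 600 l/ha water. Visual rating about 3 weeks later versus untreated controls (100% = plants dead, 0% = like controls).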

Assay [7] has as its system Amaranthus retroflexus. In words: Pre-emergence herbicidal activity against AMARE. Particulars: dosage 80 g/ha; for pest or weed control at 80 g/ha: Amaranthus retroflexus, 504 h. In short, it runs like this: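 Seeds sown in pots, covered with soil; WP or EC formulations sprayed onto soil surface as aqueous suspension/emulsion with 0.5% additive at 600 l/ha water. Pots kept in greenhouse ~3 weeks, then effect scored visually versus untreated controls as % (100% = plants dead, 0% = like control).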

The pest or weed control is how far the test organism was held down. `C=C[C@]1(C(=O)N[C@H]2CO[C@@H](C(=O)OC(C)C)C2)CC(c2cc(F)cc(F)c2)=NO1` (mixture of isomers) [I-36, isopropyl cis-4-[[(5S)-3-(3,5-difluorophenyl)-5-vinyl-4H-isoxazole-5-carbonyl]amino]tetrahydrofuran-2-carboxylate]: the pest or weed control at 320 g/ha was 80% in assay [1], 90% in assay [4] and 90% in assay [6]. Besides, the pest or weed control at 80 g/ha in assay [2], in assay [3], in assay [5] and in assay [7] was 100% in each case.
Take `C=C[C@]1(C(=O)N[C@H]2CO[C@@H](C(=O)OC(C)(C)C)C2)CC(c2cc(F)cc(F)c2)=NO1` (mixture of isomers) [I-38, tert-butyl cis-4-[[(5S)-3-(3,5-difluorophenyl)-5-vinyl-4H-isoxazole-5-carbonyl]amino]tetrahydrofuran-2-carboxylate]: the pest or weed control at 320 g/ha in assay [1] stood at 100%; in assay [4] it was 90%; in assay [6], 80%. Besides, the pest or weed control at 80 g/ha in assay [2], in assay [3], in assay [5] and in assay [7] was 100% each time.
Turning to `CC1(C(=O)NC2COC(C(=O)OCc3ccccc3)C2)CC(c2cc(F)cc(F)c2)=NO1` (mixture of isomers) [I-45], the “Post-emergence herbicidal activity against SETVI in %” value in assay [1] amounted to 90%. Further, the “Pre-emergence herbicidal activity against VERPE in %” value in assay [2] came to 80%. Moreover, the “Pre-emergence herbicidal activity against ALOMY in %” value in assay [3] was found to be 100%. The “Post-emergence herbicidal activity against ECHCG in %” value in assay [4] is 100%. Further, the “Pre-emergence herbicidal activity against SETVI in %” value in assay [5] is recorded as 100%. In assay [6], the “Post-emergence herbicidal activity against VERPE in %” value amounted to 80%. The “Pre-emergence herbicidal activity against AMARE in %” value in assay [7] worked out at 100%.
For the molecule `C=C[C@]1(C(=O)N[C@H]2CO[C@@H](C(=O)OC)C2)CC(c2cc(F)cc(F)c2)=NO1` (mixture of isomers) [I-10, methyl cis-4-[[(5S)-3-(3,5-difluorophenyl)-5-vinyl-4H-isoxazole-5-carbonyl]amino]tetrahydrofuran-2-carboxylate], the pest or weed control at 320 g/ha in assay [1] is 90%; in assay [4], 100%; in assay [6], 80%. In addition, the pest or weed control at 80 g/ha in assay [2] was 100%; in assay [3], 100%; in assay [5], 100%; in assay [7], 90%.
With `CC(C)(C)OC(=O)C1CC(NC(=O)C2(C)CC(c3cc(F)cc(F)c3)=NO2)CO1` (mixture of isomers) [I-42], the “Post-emergence herbicidal activity against SETVI in %” value in assay [1] amounted to 90%. Also, the “Pre-emergence herbicidal activity against VERPE in %” value in assay [2] came out at 90%. In assay [3], the “Pre-emergence herbicidal activity against ALOMY in %” value is 100%. Moreover, the “Post-emergence herbicidal activity against ECHCG in %” value in assay [4] came to 100%. For the same molecule, the “Pre-emergence herbicidal activity against SETVI in %” value in assay [5] was found to be 100%. For the same molecule, the “Post-emergence herbicidal activity against VERPE in %” value in assay [6] stood at 80%. In assay [7], the “Pre-emergence herbicidal activity against AMARE in %” value is 100%.
With `C=C[C@]1(C(=O)N[C@H]2CO[C@@H](C(=O)OCC)C2)CC(c2cc(F)cc(F)c2)=NO1` (mixture of isomers) [I-35, ethyl cis-4-[[(5S)-3-(3,5-difluorophenyl)-5-vinyl-4H-isoxazole-5-carbonyl]amino]tetrahydrofuran-2-carboxylate], the values for the pest or weed control at 320 g/ha in assay [1], in assay [4] and in assay [6] were 90%, 100% and 80%, respectively. The pest or weed control at 80 g/ha in assay [2], in assay [3], in assay [5] and in assay [7] was 100% throughout.
As to `CC(C)OC(=O)C1CC(NC(=O)C2(C)CC(c3cc(F)cc(F)c3)=NO2)CO1` (stereo not shown) [I-44], in assay [1], the “Post-emergence herbicidal activity against SETVI in %” value is listed as 90%. In assay [2], the “Pre-emergence herbicidal activity against VERPE in %” value is reported as 80%. Further, the “Pre-emergence herbicidal activity against ALOMY in %” value in assay [3] is recorded as 100%. For the same molecule, the “Post-emergence herbicidal activity against ECHCG in %” value in assay [4] stood at 100%. For the same molecule, the “Pre-emergence herbicidal activity against SETVI in %” value in assay [5] is on record as 100%. The “Post-emergence herbicidal activity against VERPE in %” value in assay [6] amounted to 80%. The “Pre-emergence herbicidal activity against AMARE in %” value in assay [7] was determined as 90%.
For the molecule `COC(=O)C1=C[C@@H](NC(=O)C2(C)CC(c3cccc(F)c3)=NO2)CO1` (stereo partly drawn) [I-46, methyl (3R)-3-[[3-(3-fluorophenyl)-5-methyl-4H-isoxazole-5-carbonyl]amino]-2,3-dihydrofuran-5-carboxylate], the values for the pest or weed control at 320 g/ha in assay [1], in assay [4] and in assay [6] were 80%, 100% and 80%, respectively. The pest or weed control at 80 g/ha amounted to 80% in assay [2], 100% in assay [3], 100% in assay [5] and 90% in assay [7].
Take `C=C[C@]1(C(=O)N[C@H]2CO[C@@H](C(=O)OCc3ccccc3)C2)CC(c2cc(F)cc(F)c2)=NO1` (mixture of isomers) [I-37, benzyl cis-4-[[(5S)-3-(3,5-difluorophenyl)-5-vinyl-4H-isoxazole-5-carbonyl]amino]tetrahydrofuran-2-carboxylate]: the results for the pest or weed control at 320 g/ha in assay [1], in assay [4] and in assay [6] were 80%, 90% and 80%, respectively. In addition, the pest or weed control at 80 g/ha in assay [2], in assay [3], in assay [5] and in assay [7] was 100% each time.
For `COC(=O)[C@H]1C[C@@H](NC(=O)[C@@]2(C)CC(c3cc(F)cc(F)c3)=NO2)CO1` (mixture of isomers) [I-09, methyl cis-4-[[(5R)-3-(3,5-difluorophenyl)-5-methyl-4H-isoxazole-5-carbonyl]amino]tetrahydrofuran-2-carboxylate], the pest or weed control at 320 g/ha in assay [1], in assay [4] and in assay [6] was 80% each time. Besides, the pest or weed control at 80 g/ha in assay [2] came out at 90%; in assay [3], 100%; in assay [5], 80%; in assay [7], 80%.
For `C=C[C@]1(C(=O)N[C@H]2CO[C@@H](C(=O)OC)C2)CC(c2cc(F)cc(F)c2)=NO1` (single isomer, unassigned) [I-12], in assay [1], the “Post-emergence herbicidal activity against SETVI in %” value is on record as 90%. Moreover, the pest or weed control at 80 g/ha in assay [2], in assay [3], in assay [5] and in assay [7] was 100% in each case. In addition, the “Post-emergence herbicidal activity against ECHCG in %” value in assay [4] was 90%.
As to `C=C[C@]1(C(=O)N[C@H]2CO[C@@H](C(=O)OC)C2)CC(c2cc(F)cc(F)c2)=NO1` (single isomer, unassigned) [I-11], the pest or weed control at 320 g/ha in assay [1] and in assay [4] was 90% throughout. The “Pre-emergence herbicidal activity against VERPE in %” value in assay [2] was found to be 100%. The “Pre-emergence herbicidal activity against ALOMY in %” value in assay [3] is 100%. Besides, the “Pre-emergence herbicidal activity against SETVI in %” value in assay [5] stood at 100%. Moreover, the “Pre-emergence herbicidal activity against AMARE in %” value in assay [7] is recorded as 100%.
